Assay results taken from patent publication US9186360B2, “Treatment of respiratory disorders using TRPA1 antagonists” (GLENMARK PHARMACEUTICALS S.A., priority 2011, dated 2015).
pIC50: −log10 of the molar value.

Columns and labels:
Assay type in all cases: cell-based
human TRPM8 = human TRPM8 (Homo sapiens (Human), UniProt Q7Z2W7); experiment: Radiometric calcium selectivity assay, CHO cells expressing human TRPM8 (icilin); details: read-out: IC50 values hTRPM8
Method: (§1) For selectivity screening, CHO cells stably expressing human TRPV1, human TRPV3, human TRPV4, or human TRPM8 were generated in-house and maintained in DMEM F-12 supplemented with 10% FBS and G418. All the cell types were cultured at 37° C. in humidified air containing 5% CO2. Radiometric calcium assay was performed as described above with some minor modifications. Assay was carried out in total volume of 200 μl at 30° C. (for TRPV1), 32° C. (for TRPV3) and 25° C. (for TRPV4 and TRPM8). Agonists used for selectivity screening of the different TRPs are: Capsaicin for TRPV1,2-aminoethoxydiphenyl borate for TRPV3, 4α-phorbol 12,13-didecanoate for TRPV4 and Icilin for TRPM8. After 2-5 minutes of agonist treatment, drug was washed and lysed in lysis buffer as mentioned above. Radioactivity in the lysate was measured in Packard Top count after addition of liquid scintillant.

human TRPV4 = human TRPV4 (Homo sapiens (Human), UniProt Q9HBA0); experiment: Radiometric calcium selectivity assay, CHO cells expressing human TRPV4 (4α-phorbol 12,13-didecanoate); details: read-out: IC50 values hTRPV4
human TRPV4, sequence (Q9HBA0 whole entry): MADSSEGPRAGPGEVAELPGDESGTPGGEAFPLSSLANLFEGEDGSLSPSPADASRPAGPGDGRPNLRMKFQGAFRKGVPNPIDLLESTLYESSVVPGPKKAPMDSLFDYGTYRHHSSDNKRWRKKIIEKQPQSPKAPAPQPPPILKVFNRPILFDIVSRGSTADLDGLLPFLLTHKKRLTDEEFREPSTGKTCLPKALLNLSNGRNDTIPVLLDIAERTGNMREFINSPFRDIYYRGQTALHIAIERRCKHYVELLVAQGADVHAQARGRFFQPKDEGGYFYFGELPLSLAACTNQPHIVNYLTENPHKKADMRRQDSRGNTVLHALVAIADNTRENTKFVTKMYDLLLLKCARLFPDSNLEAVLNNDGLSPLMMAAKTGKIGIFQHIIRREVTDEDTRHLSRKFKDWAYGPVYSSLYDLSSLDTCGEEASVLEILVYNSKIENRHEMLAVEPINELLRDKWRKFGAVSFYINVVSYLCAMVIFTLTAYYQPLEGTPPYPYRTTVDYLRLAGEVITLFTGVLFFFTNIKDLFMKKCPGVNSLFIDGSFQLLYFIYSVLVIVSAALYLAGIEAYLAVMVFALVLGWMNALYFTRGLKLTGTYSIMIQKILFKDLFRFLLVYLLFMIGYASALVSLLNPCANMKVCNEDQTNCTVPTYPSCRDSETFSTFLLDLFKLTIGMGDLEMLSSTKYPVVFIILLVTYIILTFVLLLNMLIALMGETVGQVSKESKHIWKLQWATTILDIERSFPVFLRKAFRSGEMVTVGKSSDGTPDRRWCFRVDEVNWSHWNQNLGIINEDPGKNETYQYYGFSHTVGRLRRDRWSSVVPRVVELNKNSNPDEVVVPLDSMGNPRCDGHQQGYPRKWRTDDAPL
Method: as §1

human TRPV1 = human TRPV1 (Homo sapiens (Human), UniProt Q8NER1); experiment: Radiometric calcium selectivity assay, CHO cells expressing human TRPV1 (capsaicin); details: read-out: IC50 values hTRPV1
human TRPV1, sequence (Q8NER1 whole entry): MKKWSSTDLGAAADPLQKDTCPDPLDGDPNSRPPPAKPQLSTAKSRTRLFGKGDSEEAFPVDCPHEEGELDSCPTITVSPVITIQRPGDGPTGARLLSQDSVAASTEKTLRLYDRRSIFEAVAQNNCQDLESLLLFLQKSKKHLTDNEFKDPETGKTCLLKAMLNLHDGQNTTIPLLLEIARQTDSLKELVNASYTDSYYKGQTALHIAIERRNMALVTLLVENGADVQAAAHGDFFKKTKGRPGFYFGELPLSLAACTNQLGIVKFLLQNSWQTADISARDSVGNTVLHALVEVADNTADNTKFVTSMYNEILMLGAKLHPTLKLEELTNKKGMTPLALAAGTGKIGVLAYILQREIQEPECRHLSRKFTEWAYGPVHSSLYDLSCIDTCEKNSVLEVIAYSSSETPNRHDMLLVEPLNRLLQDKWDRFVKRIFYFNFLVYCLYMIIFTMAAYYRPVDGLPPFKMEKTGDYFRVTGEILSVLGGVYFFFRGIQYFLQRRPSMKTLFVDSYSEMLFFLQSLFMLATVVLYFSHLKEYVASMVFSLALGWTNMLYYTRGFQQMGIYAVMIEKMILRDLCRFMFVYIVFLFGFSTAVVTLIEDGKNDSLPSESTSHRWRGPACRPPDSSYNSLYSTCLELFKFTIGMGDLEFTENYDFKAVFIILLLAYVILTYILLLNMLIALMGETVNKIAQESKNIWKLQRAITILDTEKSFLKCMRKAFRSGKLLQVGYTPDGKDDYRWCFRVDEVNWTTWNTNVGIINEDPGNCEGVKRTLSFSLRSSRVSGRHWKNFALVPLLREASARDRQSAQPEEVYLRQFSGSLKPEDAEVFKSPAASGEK
Method: as §1

human TRPV3 = human TRPV3 (Homo sapiens (Human), UniProt Q8NET8); experiment: Radiometric calcium selectivity assay, CHO cells expressing human TRPV3 (2-aminoethoxydiphenyl borate); details: read-out: IC50 values hTRPV3
human TRPV3, sequence (Q8NET8 whole entry): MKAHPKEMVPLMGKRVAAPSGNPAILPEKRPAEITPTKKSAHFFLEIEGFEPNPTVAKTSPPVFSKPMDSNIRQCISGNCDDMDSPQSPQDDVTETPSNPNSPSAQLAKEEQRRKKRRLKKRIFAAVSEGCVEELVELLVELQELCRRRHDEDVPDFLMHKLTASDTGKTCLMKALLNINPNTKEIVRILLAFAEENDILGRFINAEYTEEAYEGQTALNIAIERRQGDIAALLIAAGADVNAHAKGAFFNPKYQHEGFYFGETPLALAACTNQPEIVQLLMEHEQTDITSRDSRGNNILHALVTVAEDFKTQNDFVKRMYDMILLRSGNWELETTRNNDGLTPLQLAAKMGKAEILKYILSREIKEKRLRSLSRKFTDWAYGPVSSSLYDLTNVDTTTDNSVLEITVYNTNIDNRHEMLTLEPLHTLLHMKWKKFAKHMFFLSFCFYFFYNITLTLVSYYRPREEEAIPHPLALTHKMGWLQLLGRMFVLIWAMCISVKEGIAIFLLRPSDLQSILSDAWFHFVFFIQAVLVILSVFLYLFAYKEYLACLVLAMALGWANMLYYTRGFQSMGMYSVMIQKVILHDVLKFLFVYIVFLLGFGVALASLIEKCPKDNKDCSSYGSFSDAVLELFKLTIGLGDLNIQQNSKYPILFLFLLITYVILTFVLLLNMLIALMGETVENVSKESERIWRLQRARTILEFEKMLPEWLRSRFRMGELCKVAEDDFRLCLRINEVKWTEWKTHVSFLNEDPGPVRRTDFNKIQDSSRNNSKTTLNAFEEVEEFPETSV
Method: as §1

human TRPA1 = human TRPA1 (Homo sapiens (Human), UniProt O75762); experiment: 45Calcium uptake assay, AITC induced, human TRPA1 expressing CHO cells; details: AITC 30 micromolar, read-out: IC50 values hTRPA1
human TRPA1, sequence (O75762 whole entry): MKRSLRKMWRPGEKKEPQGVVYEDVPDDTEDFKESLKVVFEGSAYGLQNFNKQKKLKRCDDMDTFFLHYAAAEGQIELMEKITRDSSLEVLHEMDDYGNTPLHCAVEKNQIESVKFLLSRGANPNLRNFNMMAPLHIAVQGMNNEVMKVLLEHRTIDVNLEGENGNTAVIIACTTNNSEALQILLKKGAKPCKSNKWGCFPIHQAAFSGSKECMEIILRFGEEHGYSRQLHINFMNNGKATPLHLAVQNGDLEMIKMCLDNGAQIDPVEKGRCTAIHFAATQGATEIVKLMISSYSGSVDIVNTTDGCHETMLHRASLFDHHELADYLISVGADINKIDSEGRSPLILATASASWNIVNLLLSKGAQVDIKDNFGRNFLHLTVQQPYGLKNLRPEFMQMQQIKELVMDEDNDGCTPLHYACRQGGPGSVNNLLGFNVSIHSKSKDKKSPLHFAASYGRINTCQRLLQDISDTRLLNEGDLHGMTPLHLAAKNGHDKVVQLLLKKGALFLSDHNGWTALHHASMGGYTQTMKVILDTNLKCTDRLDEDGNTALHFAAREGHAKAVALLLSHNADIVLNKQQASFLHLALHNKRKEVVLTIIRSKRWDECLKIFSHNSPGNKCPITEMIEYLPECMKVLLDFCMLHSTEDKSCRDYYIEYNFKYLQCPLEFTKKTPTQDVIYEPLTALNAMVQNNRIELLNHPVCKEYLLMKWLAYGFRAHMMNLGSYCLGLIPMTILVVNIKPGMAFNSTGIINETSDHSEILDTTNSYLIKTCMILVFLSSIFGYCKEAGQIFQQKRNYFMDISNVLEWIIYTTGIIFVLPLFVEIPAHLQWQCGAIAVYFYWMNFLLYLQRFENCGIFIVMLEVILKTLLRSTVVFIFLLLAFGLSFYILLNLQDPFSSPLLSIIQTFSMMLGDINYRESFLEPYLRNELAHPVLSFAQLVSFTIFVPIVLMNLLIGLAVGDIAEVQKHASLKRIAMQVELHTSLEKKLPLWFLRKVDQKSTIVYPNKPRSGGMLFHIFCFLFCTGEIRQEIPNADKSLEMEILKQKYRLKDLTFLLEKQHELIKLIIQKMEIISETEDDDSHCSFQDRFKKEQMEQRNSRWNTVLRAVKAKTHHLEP
Method: As contemplated herein, the IC50 value is measured by the following method. The inhibition of TRPA1 receptor activation is measured as inhibition of allylisothiocyanate (AITC) induced cellular uptake of radioactive calcium. Test solution of test compound is prepared in a suitable solvent using appropriate method. Human TRPA1 expressing CHO cells are grown in suitable medium. Cells are treated with test compounds followed by addition of AITC. Cells are washed and lysed. Radioactivity in the lysate is measured in Packard Top count after addition of liquid scintillant. The concentration response curves for compounds are plotted as a % of maximal response obtained in the absence of test antagonist, and the IC50 values are calculated from such concentration response curve by nonlinear regression analysis using GraphPad PRISM software.
The illustrative TRPA1 antagonists of the present invention were screened for TRPA1 activity according to a modified procedure described in Tóth, A. et al., Life Sciences 2003, 73, 487-498. The screening of the compounds can be carried out by other methods and procedures known to persons skilled in the art.
Screening for TRPA1 Antagonist Using the 45Calcium Uptake Assay:
The inhibition of TRPA1 receptor activation was measured as inhibition of allylisothiocyanate (AITC) induced cellular uptake of radioactive calcium. Test compounds were dissolved in DMSO to prepare 10 mM stock solution and then diluted using plain medium with 0.1% BSA and 1.8 mM CaCl2 to get desired concentration. Final concentration of DMSO in the reaction was 0.5% (v/v). Human TRPA1 expressing CHO cells were grown in F-12 DMEM medium with 10% FBS, 1% penicillin-streptomycin solution, and 400 μg/ml of G-418. Cells were seeded 24 h prior to the assay in 96 well plates so as to get ˜50,000 cells per well on the day of experiment. Cells were treated with test compounds for 10 min followed by addition of AITC at a final concentration of 30 micromolar and 5 μCi/ml 45Ca+2 for 3 min at 25° C. Cells were washed and lysed using buffer containing 1% Triton X-100, 0.1% deoxycholate and 0.1% SDS. Radioactivity in the lysate was measured in Packard Top count after addition of liquid scintillant.
Concentration response curves were plotted as a % of maximal response obtained in the absence of test antagonist. IC50 value was calculated from concentration response curve by nonlinear regression analysis using GraphPad PRISM software.

human TRPM8, sequence (Q7Z2W7 whole entry): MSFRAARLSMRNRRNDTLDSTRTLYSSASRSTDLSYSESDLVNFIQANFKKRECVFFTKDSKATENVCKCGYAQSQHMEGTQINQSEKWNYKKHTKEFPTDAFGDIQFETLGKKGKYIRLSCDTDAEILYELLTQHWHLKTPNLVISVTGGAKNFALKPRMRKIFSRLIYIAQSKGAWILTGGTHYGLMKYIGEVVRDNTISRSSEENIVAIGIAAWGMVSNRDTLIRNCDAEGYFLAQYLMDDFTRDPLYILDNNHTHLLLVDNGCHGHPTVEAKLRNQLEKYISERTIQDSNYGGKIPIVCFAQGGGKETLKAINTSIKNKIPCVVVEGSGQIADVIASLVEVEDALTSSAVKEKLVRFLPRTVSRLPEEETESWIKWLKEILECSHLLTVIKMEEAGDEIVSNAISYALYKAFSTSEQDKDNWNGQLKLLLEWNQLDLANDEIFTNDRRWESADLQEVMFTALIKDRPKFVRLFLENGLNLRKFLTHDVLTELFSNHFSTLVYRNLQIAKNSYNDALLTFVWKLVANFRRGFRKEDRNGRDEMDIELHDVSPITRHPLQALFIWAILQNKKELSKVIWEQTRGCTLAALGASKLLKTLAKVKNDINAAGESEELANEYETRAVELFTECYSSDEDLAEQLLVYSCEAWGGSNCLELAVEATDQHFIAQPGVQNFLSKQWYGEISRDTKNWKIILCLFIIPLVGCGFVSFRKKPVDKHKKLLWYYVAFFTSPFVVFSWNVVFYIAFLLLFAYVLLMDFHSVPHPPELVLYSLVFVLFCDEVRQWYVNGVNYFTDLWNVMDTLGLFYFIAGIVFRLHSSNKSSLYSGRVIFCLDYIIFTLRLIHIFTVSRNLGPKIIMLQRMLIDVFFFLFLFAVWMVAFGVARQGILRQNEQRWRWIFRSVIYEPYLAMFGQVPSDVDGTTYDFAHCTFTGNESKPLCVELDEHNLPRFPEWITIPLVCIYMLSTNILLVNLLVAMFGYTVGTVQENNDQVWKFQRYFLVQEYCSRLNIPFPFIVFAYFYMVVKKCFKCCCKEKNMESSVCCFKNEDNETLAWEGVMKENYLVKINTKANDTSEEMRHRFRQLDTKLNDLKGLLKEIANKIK

| SMILES | pIC50 (human TRPM8) | pIC50 (human TRPV4) | pIC50 (human TRPV1) | pIC50 (human TRPV3) | pIC50 (human TRPA1) |
| --- | --- | --- | --- | --- | --- |
| CC(C)c1ccc(-c2csc(NC(=O)Cc3cccc4c3c(=O)n(C)c(=O)n4C)n2)cc1 [Compound 14] | < 5.00 | < 6.00 | < 5.00 | < 6.00 | 7.22 |
| Cn1c(=O)c2c(CC(=O)Nc3nc(-c4ccc(Cl)c(Cl)c4)cs3)cccc2n(C)c1=O [Compound 4] | < 5.00 | < 6.00 | < 5.00 | < 5.00 | 7.01 |
| Cn1c(=O)c2c(CC(=O)Nc3nc(-c4ccc(Cl)c(C(F)(F)F)c4)cs3)cccc2n(C)c1=O [Compound 21] | < 5.00 | 6.28 | < 6.00 | < 5.00 | 7.32 |
| Cn1c(=O)c2c(CC(=O)Nc3nc(-c4ccc(F)c(C(F)(F)F)c4)cs3)coc2n(C)c1=O [Compound 58] | < 5.00 | < 6.00 | < 5.00 | < 6.00 | 7.93 |
| Cn1c(=O)c2c(CC(=O)Nc3nc(-c4cc(F)c(CCC(F)(F)F)c(F)c4)cs3)coc2n(C)c1=O [Compound 56] | < 5.00 | < 6.00 | < 5.00 | < 5.00 | 8.47 |
| Cn1c(=O)c2c(CC(=O)Nc3nc(-c4cc(F)cc(C(F)(F)F)c4)cs3)nsc2n(C)c1=O [Compound 83] | < 5.00 | 6.63 | < 5.00 | < 6.00 | 8.36 |
| Cc1oc2c(c1CC(=O)Nc1nc(-c3ccc(OC(F)(F)F)c(F)c3)cs1)c(=O)n(C)c(=O)n2C [Compound 70] | < 5.00 | < 6.00 | < 5.00 | < 6.00 | 7.90 |
| Cn1c(=O)c2c(CC(=O)Nc3nc(-c4ccc(F)c(C(F)(F)F)c4)cs3)cccc2n(C)c1=O [Compound 20] | < 5.00 | 5.78 | < 5.00 | < 6.00 | 7.70 |
| Cc1oc2c(c1CC(=O)Nc1nc(-c3cccc(C(F)(F)F)c3F)cs1)c(=O)n(C)c(=O)n2C [Compound 67] | < 5.00 | < 5.00 | < 5.00 | < 6.00 | 7.87 |
| CN1C(=O)c2c(ncn2CC(=O)Nc2nc(-c3ccc(C(C)(C)C)cc3)cs2)N2CCN=C12 [Compound 2] | < 5.00 | 5.42 | < 5.00 | < 5.00 | 6.42 |
| Cn1c(=O)c2c(CC(=O)Nc3nc(-c4ccc(F)c(Cl)c4)cs3)cccc2n(C)c1=O [Compound 15] | < 5.00 | < 6.00 | < 5.00 | < 6.00 | 7.27 |
| Cc1oc2c(c1CC(=O)Nc1nc(-c3cc(F)c(C(F)(F)F)c(F)c3)cs1)c(=O)n(C)c(=O)n2C [Compound 72] | < 5.00 | < 6.00 | < 5.00 | < 6.00 | 8.38 |
| Cn1c(=O)c2c(CC(=O)Nc3nc(-c4ccc(C(F)(F)F)cc4F)cs3)cccc2n(C)c1=O [Compound 19] | < 5.00 | 5.79 | < 5.00 | < 6.00 | 7.58 |
| Cc1oc2c(c1CC(=O)Nc1nc(-c3ccc(C(F)(F)F)c(F)c3F)cs1)c(=O)n(C)c(=O)n2C [Compound 76] | < 5.00 | 5.05 | 5.10 | 5.60 | 8.40 |
| Cn1c(=O)c2c(CC(=O)Nc3ccn(-c4ccc(Cl)cc4)n3)cccc2n(C)c1=O [Compound 8] | < 5.00 | < 6.00 | < 5.00 | < 5.00 | 7.26 |
| CC(C)COc1c(F)cc(-c2csc(NC(=O)Cc3coc4c3c(=O)n(C)c(=O)n4C)n2)cc1F [Compound 53] | < 5.00 | < 6.00 | < 5.00 | < 5.00 | 7.74 |
| Cc1oc2c(c1CC(=O)Nc1nc(-c3ccc(C(F)(F)F)cc3F)cs1)c(=O)n(C)c(=O)n2C [Compound 65] | < 5.00 | < 6.00 | < 5.00 | < 6.00 | 8.18 |
| Cn1c(=O)c2c(CC(=O)Nc3nc(-c4cc(Cl)c(OCC(F)(F)F)c(Cl)c4)cs3)coc2n(C)c1=O [Compound 57] | < 5.00 | < 6.00 | < 5.00 | < 5.00 | 8.84 |
| Cn1c(=O)c2c(CC(=O)Nc3nc(-c4cc(F)c(OCC(F)(F)F)c(Cl)c4)cs3)coc2n(C)c1=O [Compound 60] | < 5.00 | < 6.00 | < 5.00 | < 5.00 | 8.45 |
| Cn1nc2c(c1CC(=O)Nc1nc(-c3ccc(C(F)(F)F)cc3)cs1)c(=O)n(C)c(=O)n2C [Compound 39] | < 5.00 | < 6.00 | < 5.00 | < 5.00 | 7.58 |
| Cc1oc2c(c1CC(=O)Nc1nc(-c3ccc(Cl)c(C(F)(F)F)c3)cs1)c(=O)n(C)c(=O)n2C [Compound 71] | < 5.00 | < 5.00 | < 5.00 | < 6.00 | 8.50 |

The remaining lines, values ahead:

| pIC50 (human TRPM8) | pIC50 (human TRPV4) | pIC50 (human TRPV1) | pIC50 (human TRPV3) | pIC50 (human TRPA1) | SMILES |
| --- | --- | --- | --- | --- | --- |
| < 5.00 | < 5.00 | < 5.00 | < 5.00 | 8.40 | CCc1sc2c(c1CC(=O)Nc1nc(-c3cc(F)c(OCC(F)(F)F)c(F)c3)cs1)c(=O)n(C)c(=O)n2C [Compound 49] |
| < 5.00 | < 5.00 | < 5.00 | < 5.00 | 7.47 | Cn1c(=O)c2c(CC(=O)Nc3nc(-c4ccc(OC(F)F)c(Cl)c4)cs3)cccc2n(C)c1=O [Compound 30] |
| < 5.00 | 5.55 | < 5.00 | < 6.00 | 7.32 | Cn1c(=O)c2c(CC(=O)Nc3nc(-c4ccc(F)cc4F)cs3)cccc2n(C)c1=O [Compound 13] |
| < 5.00 | 5.70 | < 5.00 | < 5.00 | 7.71 | Cn1c(=O)c2c(CC(=O)Nc3nc(-c4ccc(F)c(C(F)(F)F)c4F)cs3)ccnc2n(C)c1=O [Compound 87] |
| < 5.00 | < 5.00 | < 5.00 | < 5.00 | 7.64 | Cn1c(=O)c2c(cnn2CC(=O)Nc2nc(-c3cc(F)c(OCC(C)(C)C)c(F)c3)cs2)n(C)c1=O [Compound 40] |
| < 5.00 | < 5.00 | < 5.00 | < 5.00 | 7.91 | Cn1c(=O)c2c(cnn2CC(=O)Nc2nc(-c3cc(Cl)c(OCC(C)(C)C)c(Cl)c3)cs2)n(C)c1=O [Compound 37] |
| < 5.00 | < 5.00 | < 5.00 | < 5.00 | 7.30 | Cn1c(=O)c2c(ccn2CC(=O)Nc2nc(-c3ccc(C(F)(F)F)c(F)c3)cs2)n(C)c1=O [Compound 36] |
| < 5.00 | < 5.00 | < 5.00 | < 5.00 | 7.76 | Cn1c(=O)c2c(CC(=O)Nc3nc(-c4ccc(F)c(C(F)(F)F)c4F)cs3)cccc2n(C)c1=O [Compound 31] |
| < 5.00 | 6.26 | < 5.00 | 5.75 | 8.25 | Cn1c(=O)c2c(CC(=O)Nc3nc(-c4ccc(F)c(C(F)(F)F)c4F)cs3)nsc2n(C)c1=O [Compound 77] |
| < 5.00 | < 5.00 | < 5.00 | < 5.00 | 6.04 | CN1C(=O)c2c(ncn2CC(=O)Nc2nc(-c3ccc(Br)cc3)cs2)N2CCN=C12 [Compound 1] |
